Results taken from PMC10411625, “Rationally designed stapled peptides allosterically inhibit PTBP1–RNA-binding” (Chemical Science, 2023).
Positions of bridges follow the written chain, without caps; N, C: chain ends. Non-standard residues stand in square brackets, D forms with d. Residues, ends and D or L forms follow the SMILES beside them. R8 = C=CCCCCCC[C@@](C)(N)C(=O)O; S5 = C=CCCC[C@](C)(N)C(=O)O

What was measured:
PTBP1 RRM12 = biological target: T1, PTBP1 RRM12 (Homo sapiens, UniProt P26599); test: Competitive fluorescence polarization assay between RRM12 and RNA-2; assay type: binding; settings: Fig. 2C, 5 nM FAM-RNA-2, protein at 50-70 % probe binding, FP buffer pH 8.0, 20 °C, 30 min, n.b. given for inactive peptides; for Ki: read-out: Ki, competitive FP assay between RRM12 and RNA-2
T1 construct: (P57-V265); MBP (from pMAL vector); His tag; made in house; host or cells: E. coli BL21 DE3 RIL
T1 sequence (P26599 57-265): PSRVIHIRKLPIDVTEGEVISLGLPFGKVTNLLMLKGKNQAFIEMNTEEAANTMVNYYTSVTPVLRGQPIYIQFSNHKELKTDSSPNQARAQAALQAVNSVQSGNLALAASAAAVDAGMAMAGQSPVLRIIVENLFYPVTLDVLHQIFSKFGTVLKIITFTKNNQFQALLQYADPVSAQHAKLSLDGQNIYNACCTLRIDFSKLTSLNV
Source text: (§1) For the initial design we used the i, i + 4 strategy where two (S)-pentenyl alanines (S5) were introduced in positions with three other amino acids in between. We picked three different amino acid pairs to replace with the S5 amino acids based on their orientation as observed in the NMR structures (P-2, P-3 and P-4, Fig. 2B and C).[25] To prevent the staple from disturbing the interaction between the ligand and the protein we chose positions facing away from the binding site forming the pairs Ala145/Ala149, Gln148/Gln152, and Ala149/Ala153. The three peptides were synthesized on Rink amide resin and the linear peptides were treated with a Grubbs catalyst to connect the S5 residues. To avoid a mixture of E/Z-diastereomers we reduced the alkene in the linker of the staple using a solution phase hydrogenation protocol.[43] The linear equivalent P-1 was synthesized for comparison but had to be extended on the C-terminus with an arginine residue to improve its solubility. The C-terminus is away from the binding surface and this modification was therefore not expected to have an impact on the binding affinity. The peptides were tested in a competitive fluorescence polarization assay using the RRM12 construct and RNA-2 (Fig. 2C and S2 ^†). […] As the staple is expected to stabilize the α-helical conformation we used circular dichroism (CD) spectroscopy to evaluate the helicity of the peptides. […] It is possible that although P-4 was more helical than P-3, the replacement of Gln148 with the hydrophobic linker disturbed the interaction since the side chain amide potentially interacts with the RRM1 surface. […]
size exclusion chromatography (Superdex 75 16/60 or 26/60) with SEC buffer (50 mM Tris, 200 mM NaCl). Protein homogeneity was assessed by the size exclusion chromatogram and purity was checked by SDS-PAGE analysis to be >= 90%.
The gene encoding for SRSF1-RRM12 (1-195) was subcloned into pOPIN-His expression vector and expressed in E. coli BL21 (DE3). A pre-culture of transformed bacteria was made followed by expression in LB-Medium (100 µg/ml Ampicillin, 1 mM IPTG, 18 °C, 160 rpm overnight) after growing the culture at 37 °C, 160 rpm to an OD600 of 0.6. The harvested cells (5000 x g, 4 °C, 15 min) were resuspended in Buffer ASRSF1 (50 mM Na2HPO4 pH 8.0, 300 mM KCl, 50 mM L-Arg, 50 mM L-Gly, 1.5 mM MgCl2) supplemented with 1 mM PMSF followed by lysis through sonification. The protein was purified using a HisTrap HP 5 ml column (GE-Healthcare) using a gradient of Buffer BSRSF1 (50 mM Na2HPO4 pH 8.0, 300 mM KCl, 50 mM L-Arg, 50 mM L-Gly, 1.5 mM MgCl2, 500 mM Imidazole) followed by dialysis into wash buffer (50 mM Na2HPO4 pH 8.0, 300 mM KCl, 50 mM L-Arg, 50 mM L-Gly, 1.5 mM MgCl2, 40 mM Imidazole) and a second run of the affinity column. The protein containing fractions were afterwards dialyzed into wash buffer with tag-cleavage using His-tagged 3C protease. The cleaved construct was subsequently used for a third affinity column run collecting the unbound fraction which was dialyzed into storage buffer (20 mM Na2HPO4 pH 8.0, 150 mM KCl, 50 mM L-Arg, 50 mM L-Gly, 1.5 mM MgCl2, 0.2 mM EDTA, 1 mM TCEP).
Purification of hnRNP A2/B1
The MBP-tagged hnRNP A2/B1 construct (1-251) was expressed from a pOPIN-His-MBP vector in E. coli BL21 (DE3) RIPL cells. A pre-culture in TB (0.01% lactose, 2mM MgSO4, 100 µg/ml ampicillin, 50 µg/ml chloramphenicol) was used to inoculate the expression culture with a starting OD600 of 0.05 at 37 °C. Expression was autoinduced at 37 °C for 4 h followed by expression over night at 25 °C. Harvested cells (5000 x g, 15 min, 4 °C) were resuspended in Buffer AhnRNPA2/B1 (50 mM HEPES pH 8.0, 300 mM NACl, 20 mM Imidazole, 1 mM TCEP) supplemented with 1 mM PMSF) and lysed with a microfluidizer.
Immobilized metal affinity chromatography was performed using a HisTrap FF crude 5 ml column. The loaded protein was washed with wash buffer (50 mM HEPES pH 8.0, 300 mM NaCl, 30 mM Imidazole, […]

[1] = Helicity by circular dichroism spectroscopy; assay type: physicochemical; settings: 50 µM peptide, 20 mM sodium phosphate pH 8.0, 10 mM NaF, 20 °C, triplicates, JASCO multivariate secondary structure analysis
Source text: as §1
performed in FP bufferPTBP1. […]
serially diluted in the same buffer. […]
a final concentration of 10 nM probe. […]
the settings mentioned previously.
Fluorescence polarization assay with SRSF1
Fluorescence polarization was
Fluorescence polarization assay with hnRNPA2/B1
For the competitive assay 10 nM
Microscale thermophoresis […]
afterwards serially diluted into FP buffer.
The data was evaluated at […]
experiments were performed in duplicates.
Circular Dichroism Spectroscopy […]

| SMILES | Ki (PTBP1 RRM12) | Helicity by CD spectroscopy [1] | Ki, competitive FP assay between RRM12 and RNA-2 (PTBP1 RRM12) |
| --- | --- | --- | --- |
| CC(=O)N[C@@H](CC(N)=O)C(=O)N[C@@H](CCC(N)=O)C(=O)N[C@@H](C)C(=O)N[C@@H](CCCNC(=N)N)C(=O)N[C@@H](C)C(=O)N[C@@H](CCC(N)=O)C(=O)N[C@@]1(C)CCCCCCCC[C@@](C)(C(=O)N[C@H](C(=O)N[C@@H](CC(N)=O)C(N)=O)C(C)C)NC(=O)[C@H](CCC(N)=O)NC(=O)[C@H](CC(C)C)NC(=O)[C@H](C)NC1=O [Peptide P-3] | 156 µM | 57.8% |  |
| CC(=O)N[C@@H](CC(N)=O)C(=O)N[C@@H](CCC(N)=O)C(=O)N[C@@]1(C)CCCC=CCCCC2(CCCC=CCCC[C@](C)(C(=O)N[C@H](C(=O)N[C@@H](CC(=O)O)C(N)=O)C(C)C)NC(=O)[C@H](CCC(N)=O)NC(=O)[C@H](CC(C)C)NC(=O)[C@H](C)NC2=O)NC(=O)[C@H](CCC(N)=O)NC(=O)[C@H](C)NC(=O)[C@H](CCCNC(=N)N)NC1=O (stereo partly drawn) [Peptide P-7] |  |  | n.b. |
| CC(=O)N[C@@H](CC(N)=O)C(=O)N[C@@H](CCC(N)=O)C(=O)N[C@@]1(C)CCCC=CCCCC2(CCCC=CCCC[C@](C)(C(=O)N[C@H](C(=O)N[C@@H](CC(N)=O)C(N)=O)C(C)C)NC(=O)[C@H](CCC(N)=O)NC(=O)[C@H](CC(N)=O)NC(=O)[C@H](C)NC2=O)NC(=O)[C@H](CCC(N)=O)NC(=O)[C@H](C)NC(=O)[C@H](CCCNC(=N)N)NC1=O (stereo partly drawn) [Peptide P-9] |  |  | n.b. |
| CC(=O)N[C@@H](CC(N)=O)C(=O)N[C@@H](CCC(N)=O)C(=O)N[C@@H](C)C(=O)N[C@@H](CCCNC(=N)N)C(=O)N[C@@H](C)C(=O)N[C@@]1(C)CCCCCCCC[C@@](C)(C(=O)N[C@@H](C)C(=O)N[C@H](C(=O)N[C@@H](CC(N)=O)C(N)=O)C(C)C)NC(=O)[C@H](CC(C)C)NC(=O)[C@H](C)NC(=O)[C@H](C)NC1=O [Peptide P-4] | 275 µM | 77.3% |  |
| CC(=O)N[C@H](C(=O)N[C@@H](CCC(N)=O)C(=O)N[C@@]1(C)CCCC=CCCCC2(CCCC=CCCC[C@](C)(C(=O)N[C@H](C(=O)N[C@@H](CC(N)=O)C(N)=O)C(C)C)NC(=O)[C@H](CCC(N)=O)NC(=O)[C@H](CC(C)C)NC(=O)[C@H](C)NC2=O)NC(=O)[C@H](CCC(N)=O)NC(=O)[C@H](C)NC(=O)[C@H](CCCNC(=N)N)NC1=O)C(C)C (stereo partly drawn) [Peptide P-10] | 22.4 ± 4.5 µM |  |  |
| CC(=O)N[C@@H](CC(N)=O)C(=O)N[C@@H](CCC(N)=O)C(=O)N[C@@]1(C)CCCC=CCCCC2(CCCC=CCCC[C@](C)(C(=O)N[C@H](C(=O)N[C@@H](CC(N)=O)C(N)=O)C(C)C)NC(=O)[C@H](CCC(N)=O)NC(=O)[C@H](CC(C)C)NC(=O)[C@H](C)NC2=O)NC(=O)[C@H](CCC(N)=O)NC(=O)[C@H](C)NC(=O)[C@H](CCNC(=N)N)NC1=O (stereo partly drawn) [Peptide P-8] |  |  | n.b. |
| CC(=O)N[C@@H](CC(N)=O)C(=O)N[C@@H](CCC(N)=O)C(=O)N[C@@]1(C)CCCC=CCCCCCC[C@](C)(C(=O)N[C@@H](C)C(=O)N[C@H](C(=O)N[C@@H](CC(N)=O)C(N)=O)C(C)C)NC(=O)[C@H](CC(C)C)NC(=O)[C@H](C)NC(=O)[C@H](C)NC(=O)[C@H](CCC(N)=O)NC(=O)[C@H](C)NC(=O)[C@H](CCCNC(=N)N)NC1=O [Peptide P-5] (Ac-NQ[S5]RAQAAL[R8]AVN-NH2; staple 3-10) | 24.9 µM |  |  |
